We go through one molecule from publication PMC11413854, “Reversible Control of Native GluN2B-Containing NMDA Receptors with Visible Light” (ACS Chemical Neuroscience, 2024).

Entries after “also recorded” stand apart in the source; their conditions may differ. Like-named read-outs stand apart in the source and are kept apart here.

The target of the test is T1, GluN1/GluN2B NMDA receptors (UniProt P35439+Q01097).
T1 construct: expressed in transfected cells; host or cells: Xenopus laevis oocytes (nuclear cDNA injection)
Description: TEVC electrophysiology on Xenopus oocytes expressing wt GluN1/GluN2B NMDARs. Type of test: cell-based, rat GluN1, mouse GluN2B. The note with it: for remaining activity at 0.01 µM / remaining activity at 0.025 µM / remaining activity at 0.05 µM / remaining activity at 0.1 µM / remaining activity at 0.15 µM: GluN1/GluN2B wt, read-out: Relative current (IOpto/I0); for remaining activity at 0.01 µM: 0.010 µM; for remaining activity at 0.05 µM: 0.050 µM; for remaining activity at 0.1 µM: 0.100 µM; for remaining activity at 0.15 µM: 0.150 µM.

T1 sequence (Q01097 27-1482, other chains not shown): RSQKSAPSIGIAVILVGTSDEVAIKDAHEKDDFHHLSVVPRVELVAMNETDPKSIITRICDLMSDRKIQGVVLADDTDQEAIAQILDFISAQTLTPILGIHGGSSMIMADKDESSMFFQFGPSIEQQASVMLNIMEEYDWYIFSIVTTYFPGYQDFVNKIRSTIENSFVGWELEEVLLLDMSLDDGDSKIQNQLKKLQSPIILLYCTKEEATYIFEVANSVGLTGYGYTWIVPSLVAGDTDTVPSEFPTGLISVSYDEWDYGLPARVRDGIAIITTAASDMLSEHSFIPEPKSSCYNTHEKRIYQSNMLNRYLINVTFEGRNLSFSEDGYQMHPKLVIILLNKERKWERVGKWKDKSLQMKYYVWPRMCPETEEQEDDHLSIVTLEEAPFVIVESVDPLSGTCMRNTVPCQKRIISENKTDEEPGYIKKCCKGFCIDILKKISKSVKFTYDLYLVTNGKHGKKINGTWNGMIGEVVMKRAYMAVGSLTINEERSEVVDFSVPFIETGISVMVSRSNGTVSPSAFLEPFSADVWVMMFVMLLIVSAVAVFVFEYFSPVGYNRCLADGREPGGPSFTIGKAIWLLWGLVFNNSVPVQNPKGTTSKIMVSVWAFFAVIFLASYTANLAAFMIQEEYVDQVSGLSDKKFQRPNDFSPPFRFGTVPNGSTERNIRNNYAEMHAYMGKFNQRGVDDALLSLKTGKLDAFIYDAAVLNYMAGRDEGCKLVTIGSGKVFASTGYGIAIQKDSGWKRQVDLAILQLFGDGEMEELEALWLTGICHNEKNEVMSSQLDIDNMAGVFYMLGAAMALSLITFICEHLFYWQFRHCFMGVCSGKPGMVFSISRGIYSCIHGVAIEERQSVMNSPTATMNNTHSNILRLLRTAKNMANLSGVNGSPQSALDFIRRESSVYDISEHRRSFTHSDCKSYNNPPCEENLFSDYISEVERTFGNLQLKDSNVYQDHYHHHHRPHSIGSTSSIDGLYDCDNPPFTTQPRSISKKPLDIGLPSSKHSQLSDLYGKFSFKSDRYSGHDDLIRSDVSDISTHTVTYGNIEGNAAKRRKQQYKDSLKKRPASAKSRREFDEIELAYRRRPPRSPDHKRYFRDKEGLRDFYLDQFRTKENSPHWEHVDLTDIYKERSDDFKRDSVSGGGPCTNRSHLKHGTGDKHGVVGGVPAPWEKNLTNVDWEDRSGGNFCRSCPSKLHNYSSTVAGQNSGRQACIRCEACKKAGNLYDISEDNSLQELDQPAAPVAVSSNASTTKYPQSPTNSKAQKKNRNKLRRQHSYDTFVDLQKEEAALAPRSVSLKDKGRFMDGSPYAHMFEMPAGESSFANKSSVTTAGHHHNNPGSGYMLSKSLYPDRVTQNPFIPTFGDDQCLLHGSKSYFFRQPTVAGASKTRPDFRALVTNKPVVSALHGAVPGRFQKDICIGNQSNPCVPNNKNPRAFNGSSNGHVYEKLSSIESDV

As to `CS(=O)(=O)Nc1ccc2nc(Cc3ccc(/N=N/c4ccccc4)cc3)[nH]c2c1` [OptoNAM-4, (E)-N-(2-(4-(phenyldiazenyl)benzyl)-1H-benzo[d]imidazol-6-yl)methanesulfonamide], where the note is “365 nm PSS, Xenopus oocytes, read-out: IC50 on GluN1/GluN2B receptors, pre-illuminated with 365 nm”, the IC50 worked out at 31 ± 29 nM. For the same molecule, where the note is “365 nm PSS”, the remaining activity at 0.01 µM was 69.6%, the remaining activity at 0.025 µM was found to be 50.1%, the remaining activity at 0.05 µM amounted to 44.8% and the remaining activity at 0.1 µM amounted to 34%. Besides, under “365 nm PSS”, the remaining activity at 0.15 µM stood at 21%. Besides, under “dark PSS (trans)”, the remaining activity at 0.01 µM was 68.3%, the remaining activity at 0.025 µM was 45.6%, the remaining activity at 0.05 µM stood at 39% and the remaining activity at 0.1 µM came to 29.7%. Under “dark PSS (trans)”, the remaining activity at 0.15 µM is 15%. Further, the IC50 (dark PSS (trans), Xenopus oocytes, read-out: IC50 on GluN1/GluN2B receptors in the dark) is 24 ± 26 nM. Moreover, the “photodependence of activity on GluN1/GluN2B NMDARs” value (dark vs 365 nm PSS) is listed as “not photodependent; also recorded: did not display any photodependence of activity”. Besides, for the setting “preilluminated in solution, Xenopus oocytes”, the “UV/dark IC50 ratio (365 nm PSS vs dark)” value turned out to be 1.3 fold.
